Converted amounts (≈) assume the structure as drawn. Like-named read-outs stand apart in the source and are kept apart here.
Columns and labels:
[1] = Solubility in buffer systems A-G; type: physicochemical; details: thermodynamic from solid
Procedure: A magnetic stirring bar was added to the mixtures. […] If the compound was dissolved, the result was reported (twice the weighed amount of compound/ml). If the compound was not dissolved, 0.5 ml of extra solvent was added to the suspension. […] If the compound was dissolved, the result was reported (weighed amount of compound/ml). If the compound was not dissolved, 1 ml of extra solvent is pipetted into the suspension. The mixtures were shaken (Edmund Buhler SM25 175 SPM) at ambient temperature overnight and inspected afterwards. If the compound was dissolved, the result was reported (half the weighed amount of compound/ml). If the compound was not dissolved, the suspension was filtered over a filter disc. An aliquot of the filtrate was diluted with an appropriate solvent (0.1 N HCl/acetonitrile 1/1) and submitted for concentration measurement (mg/ml) using a generic UPLC method.

[2] = system: Microsporum canis (strain B68128); test: Analogous protocol: comparison compounds (G10, G11) against M. canis in guinea pigs after oral treatment; type: in vivo; parameters: key to semi-quantitative lesion score (mean): lesion score 0–3.5 by severity and size of lesion; details: oral 50 mg/kg once daily for 7 days
Procedure: The animals used in the tests described below were female Guinea pigs (Duncan-Hartley, Charles River, 200 g). These animals were kept in groups of 2 or 3 in cages of 56×33×20 cm^3. Food pellets (Carfil Quality) and water were available ad libitum in addition to a small daily amount of hay. Standard husbandry conditions were adopted: room temperature: 22° C., humidity level: 60% and a day-night cycle of 12 h.
For the preparation of inoculums, Microsporum canis (strain B68128) was grown on Sabouraud Dextrose Agar (SDA) plates for at least one week (7-10 days) before infection (27° C.). On the day of infection, spores were harvested by adding 4-5 ml sterile water on the plate and suspending the infectious material with a bend Pasteur pipette. From the recollected fluid, 10 μl was added to a KOVA counting chamber for determination of the number of spores in 1 square (average of several squares). If needed, additional dilutions (10× or 100×) were prepared. The average number of spores in one square×dilution×90.000=cfu/ml. An inoculum of 1×10^7 cfu/ml was prepared in a honey-water mixture (50%-50%).
In the tests described below, semi-quantitative lesion scores were given based on different clinical parameters. Scores between 0 and 3.5 were assigned based on the severity and size of the lesion. The criteria are listed in detail in Table 6.
For the sake of comparison, 2 compounds not having the 1,1-difluoroethyl moiety in the R^5 or R^6 position, were tested in an analogous protocol:
The dorsum of the guinea pigs was shaved and further depilated for 7 minutes with Veet® creme before scarification with a steel brush. An inoculum of 10^6 cfu in 200 μl (100 μl mQ+100 μl honey) was applied to the wound using a micropipette with disposable tips. The animal was kept immobilized until the inoculum had completely dried.
Vehicle: methocel F4M Premium EP, Tween 80® (polysorbate 80), demineralised water.
Test compounds: prepared at 30 mg/ml, subsequently further diluted until 6 mg/ml.
Oral treatment (gavage 0.40 ml/guinea pig once daily) was started about 2 hours before infection and continued once daily for 7 consecutive days.
Developments of lesions were evaluated following the semi-quantitative lesion scoring system (see Table 6) on days 3, 5, 7, 10, 12, 14, 18 and 21. Reported values in Table 8 are mean values.

[3] = pH 4, aqueous with cosolvent or surfactant or cyclodextrin, buffer pH 4, containing 10% (w/v) of HPBCD, read-out: Solubility, buffer system C
[4] = pH 7.4, aqueous with cosolvent or surfactant or cyclodextrin, buffer pH 7.4, containing 10% (w/v) of HPBCD, read-out: Solubility, buffer system F
[5] = pH 7.4, aqueous with cosolvent or surfactant or cyclodextrin, buffer pH 7.4, containing 20% (w/v) of HPBCD, read-out: Solubility, buffer system G

solubility ([1]; phosphate-citrate (McIlvaine) buffer pH 4, pH 4, aqueous buffer, buffer pH 4, ambient temperature, read-out: Solubility, buffer system B) [µg/mL] | solubility ([1]; phosphate-citrate (McIlvaine) buffer pH 7.4, pH 7.4, aqueous buffer, buffer pH 7.4, ambient temperature, read-out: Solubility, buffer system E) [µg/mL] | SMILES | solubility [1, 3] [µg/mL] | solubility [1, 4] [µg/mL] | solubility [1, 5] [µg/mL] | activity against M. canis (in words) [2] | activity compared with present compounds 14 and 4 (G7 and G4, both at 40 mg/kg) [2] | semi-quantitative lesion score (mean) ([2]; 3 DPI) | semi-quantitative lesion score (mean) ([2]; 5 DPI) | semi-quantitative lesion score (mean) ([2]; 7 DPI) | semi-quantitative lesion score (mean) ([2]; 10 DPI) | semi-quantitative lesion score (mean) ([2]; 12 DPI) | semi-quantitative lesion score (mean) ([2]; 14 DPI) | semi-quantitative lesion score (mean) ([2]; 18 DPI) | semi-quantitative lesion score (mean) ([2]; 21 DPI) | solubility ([1]; pH 4, aqueous buffer, buffer pH 4, ambient temperature, read-out: Solubility, buffer system B) [µg/mL] | solubility ([1]; pH 4, aqueous with cosolvent or surfactant or cyclodextrin, buffer pH 4, containing 20% (w/v) of HPBCD, read-out: Solubility, buffer system D) [µg/mL] | solubility ([1]; pH 7.4, aqueous buffer, buffer pH 7.4, ambient temperature, read-out: Solubility, buffer system E) [µg/mL] | solubility ([1]; simulated gastric fluid, 0.01 N HCl, ambient temperature, read-out: Solubility, buffer system A) [µg/mL]
87 (≈ 244 µM) | < 1 | CC(F)(F)c1ccc(C2=NCc3ccc(Cl)cc3-n3cccc32)cc1 [drawing 30] | 1230 (≈ 3440 µM) | 191 (≈ 535 µM) | 603 (≈ 1690 µM) |  |  |  |  |  |  |  |  |  |  |  |  |  | 
 |  | CCc1cccc(C2=NCc3c(Cl)cccc3-n3cccc32)c1 [Compound G10] |  |  |  | partial activity | less active | 0 | 0.5 | 1 | 1 | 2 | 1 | 1 | 0.5 |  |  |  | 
 |  | CCc1ccc(C2=NCc3ccc(Cl)cc3-n3cccc32)cc1 [drawing 29] | 48 (≈ 150 µM) | 35 (≈ 109 µM) | 110 (≈ 343 µM) |  |  |  |  |  |  |  |  |  |  | < 1 | 1490 (≈ 4640 µM) | < 1 | 1880 (≈ 5850 µM)

Reference: US9637490B2, “Antifungal 5,6-dihydro-4-[(difluoroethyl)phenyl]-4H-pyrrolo[1,2-α][1,4]benzodiazepine and 4-(difluoroethyl)phenyl-6H-pyrrolo[1,2-α][1,4]benzodiazepine derivatives” (Janssen Pharmaceutica NV, priority 2010, dated 2017)
